From patent US7091207B2, “Method of treating myocardial infarction with PDE-5 inhibitors” (Virginia Commonwealth University, priority 2002, dated 2006)
Several values for one entry are separate records, joined by “and”; a condition that tells them apart may be missing. Equal entries are not always repeated. Marks after values point to notes of the source that are not given here.

Assays:
[1] = test system: rabbit heart, ischemia/reperfusion injury; test: In situ rabbit model of myocardial infarction (30 min coronary occlusion, 180 min reperfusion), infarct size by TTC staining; type: in vivo; details: for reduction of infarct size vs saline control: 0.7 mg/kg IV
[2] = Systemic hemodynamics (blood pressure, heart rate, rate pressure product) in rabbits; type: in vivo, rabbit
[3] = test system: mouse heart, global I-R injury; test: Isolated perfused mouse heart (Langendorff), 20 min global ischemia and 30 min reperfusion after in vivo treatment
Protocol: (§1) Adult male outbred ICR mice were supplied by Harlan Inc (Indianapolis, Ind.). Viagra pills (Pfizer Inc) were ground into powder and dissolved in saline. The drug solution was filtered (0.45-μm pore size) before intraperitoneal injection. 1400W, an iNOS inhibitor, was obtained from Alexis. We used an isolated perfused mouse heart model subjected to 20 minutes of global ischemia and 30 minutes of reperfusion (Langendorff mode). Myocardial I-R injury was assessed by measuring infarct size, contractile function, and coronary flow as described previously (Xi, 1999). Twenty-eight mice were randomized into the following 4 groups: (n=6 to 9 per group): (1) saline (0.15 mL IP), (2) sildenafil (0.7 mg/kg IP, equivalent to 50 mg Viagra pill used for patients with erectile dysfunction, given 24 hours before I-R), (3) sildenafil+1400W (10 mg/kg IP, 14 given 30 minutes before I-R), and (4) saline+1400W. Measurement of NOS Isoforms Mice were treated with sildenafil (0.7 mg/kg IP), and their hearts were removed at 15, 30, and 45 minutes and 1, 2, 3, 4, and 24 hours after injection (n=3 per group). Three nontreated hearts were used as controls. Tissue samples were ground under liquid nitrogen and homogenized with TRI Reagent (Molecular Research Center) for extracting total RNA, which was reverse-transcribed into cDNA at 50° C. for 30 minutes using a OneStep reverse transcription (RT)-polymerase chain reaction (PCR) kit from Qiagen. The oligonucleotide primers were synthesized on the basis of published sequences for murine iNOS, eNOS, and GAPDH15 (Integrated DNA Technology). The RT-PCR products were electrophoresed on 1.5% Trisacetate-EDTA agarose gel. The target bands were identified on the basis of their specific size using DNA standards. iNOS and eNOS proteins were measured by Western blots as described previously. 13 In brief, triplicate heart samples were collected 24 hours after saline or sildenafil injection and homogenized in ice-cold RIPA buffer (Upstate Biotechnology). The homogenate was centrifuged at 10,000 g for 10 minutes at 4° C., and supernatant was recovered as the total cellular protein. Total protein (60 μg) from each sample was separated by SDS-PAGE on 10% acrylamide gels, transferred to a polyvinylidine difluoride membrane, and then blocked with 5% nonfat dry milk in Tris-buffered saline. The membrane was subsequently incubated with a rabbit polyclonal antibody (dilution 1:500, Santa Cruz) reacting specifically to iNOS, eNOS, or actin. The secondary antibody was a horseradish peroxidase-conjugated anti-rabbit IgG (1:1000 dilution, Amersham). The membranes were developed using enhanced chemiluminescence and exposed to x-ray film. The mRNA and protein expression were quantified by scanning each of the RT-PCR or Western blot band using a densitometer (Bioquant 98). […]

[4] = test system: iNOS; test: Cardiac iNOS mRNA (RT-PCR) and protein (Western blot) expression after treatment; type: in vivo, mouse; details: 0.7 mg/kg IP
Protocol: as §1, with “13 In brief, triplicate heart samples were collected 24 hours after saline or sildenafil injection and homogenized in ice-cold RIPA buffer (Upstate Biotechnology). The homogenate was centrifuged at 10,000 g for 10 minutes at 4° C., and supernatant was recovered as the total cellular protein. Total protein (60 μg) from each sample was separated by SDS-PAGE on 10% acrylamide gels, transferred to a polyvinylidine difluoride membrane, and then blocked with 5% nonfat dry milk in Tris-buffered saline. The membrane was subsequently incubated with a rabbit polyclonal antibody (dilution 1:500, Santa Cruz) reacting specifically to iNOS, eNOS, or actin. The secondary antibody was a horseradish peroxidase-conjugated anti-rabbit IgG (1:1000 dilution, Amersham). The membranes were developed using enhanced chemiluminescence and exposed to x-ray film.” left out

[5] = test system: nNOS, iNOS and eNOS knockout mouse hearts; test: Delayed cardioprotection in NOS gene-knockout mice, isolated perfused heart, 30 min global ischemia and 60 min reperfusion; type: in vivo; details: iNOS-KO mice
[6] = oral 1.4 mg/kg, after 30 minutes
[7] = oral sildenafil citrate 1.4 mg/kg, Acute, 30-min Ischemia
[8] = oral sildenafil citrate 1.4 mg/kg, Acute, 60-min Reperfusion
[9] = oral sildenafil citrate 1.4 mg/kg, Acute, 80-min Reperfusion
[10] = oral sildenafil citrate 1.4 mg/kg, Acute, 120-min Reperfusion
[11] = oral sildenafil citrate 1.4 mg/kg, Acute, Baseline
[12] = oral sildenafil citrate 1.4 mg/kg, Acute, Preischemia
[13] = oral sildenafil citrate 1.4 mg/kg, Delayed, 30-min Ischemia
[14] = oral sildenafil citrate 1.4 mg/kg, Delayed, 60-min Reperfusion
[15] = oral sildenafil citrate 1.4 mg/kg, Delayed, 80-min Reperfusion
[16] = oral sildenafil citrate 1.4 mg/kg, Delayed, 120-min Reperfusion
[17] = oral sildenafil citrate 1.4 mg/kg, Delayed, Baseline
[18] = oral sildenafil citrate 1.4 mg/kg, Delayed, Preischemia
[19] = sildenafil 0.7 mg/kg IV, acute phase, 30-min Ischemia
[20] = sildenafil 0.7 mg/kg IV, acute phase, Baseline
[21] = sildenafil 0.7 mg/kg IV, acute phase, Preischemia
[22] = sildenafil 0.7 mg/kg IV, acute phase, Reperfusion (60 min)
[23] = sildenafil 0.7 mg/kg IV, acute phase, Reperfusion (120 min)
[24] = sildenafil 0.7 mg/kg IV, acute phase, Reperfusion (180 min)
[25] = sildenafil 0.7 mg/kg IV, delayed phase, 30-min Ischemia
[26] = sildenafil 0.7 mg/kg IV, delayed phase, Baseline
[27] = sildenafil 0.7 mg/kg IV, delayed phase, Preischemia
[28] = sildenafil 0.7 mg/kg IV, delayed phase, Reperfusion (60 min)
[29] = sildenafil 0.7 mg/kg IV, delayed phase, Reperfusion (120 min)
[30] = sildenafil 0.7 mg/kg IV, delayed phase, Reperfusion (180 min)
[31] = sildenafil citrate 0.7 mg/kg intravenous, within 2 minutes
[32] = 0.7 mg/kg IP 24 hours before I-R

With `CCCc1nn(C)c2c(=O)[nH]c(-c3cc(S(=O)(=O)N4CCN(C)CC4)ccc3OCC)nc12` [sildenafil] the infarct size ([1]; 0.1 mg/kg, 30 minutes prior to ischemia) was 17.05%, the infarct size ([1]; 0.2 mg/kg, 30 minutes prior to ischemia) was 13.53±1.24 and the “infarct limiting effect at lower doses (0.2 and 0.1 mg/kg) versus the 0.7 mg/kg dose” value ([1]; 30 minutes prior to ischemia) was “comparable”. For the same compound, the “reduction of infarct size vs saline control” value ([1]; acute phase, 0.7 mg/kg) was 68% and 67%, the infarct size ([1]; acute phase: sildenafil 0.7 mg/kg IV 30 min prior to ischemia/reperfusion) was 10.8±0.9 % of risk area and the “reduction of infarct size vs saline control” value ([1]; delayed phase) was 41%. The infarct size ([1]; delayed phase: sildenafil 0.7 mg/kg IV 24 hrs prior to ischemia/reperfusion) was 19.9±2.0 % of risk area, the infarct size ([1]; total dose 0.7 mg/kg infused from 25 min of ischemia into reperfusion for 1 hr, 0.7 mg/kg) was 18.37±2.42 and the infarct size ([1]; total dose 0.7 mg/kg infused from 25 min of ischemia into reperfusion for 1 hr, listed as Sildenafil, 0.7 mg/kg) was “significant reduction in the infarct size”. For the same compound, the “changes in heart rate” value ([2]; 0.7 mg/kg intravenous) was “No significant changes in heart rate”, the “time until systemic hemodynamics returned to nearly baseline levels” value ([2]; 0.7 mg/kg intravenous) was no more than 5 min and the “changes in heart rate” value ([2]; oral 1.4 mg/kg) was “No changes in heart rate”. For the same compound, the “decrease in diastolic pressure” value [2, 6] was roughly 12.5%, the “decrease in mean arterial pressure” value [2, 6] was roughly 10.3% and the “decrease in systolic pressure” value [2, 6] was “approximately 9.2%”. The hypotensive response ([2]; oral 1.4 mg/kg, at 60 minutes) was “remained significant”, the HR [2, 7] was 216 ± 18 beats/min and the MAP [2, 7] was 96 ± 6 mmHg. For the same compound, the “RPP (systolic arterial pressure x HR)” value [2, 7] was 23137 ± 1617, the HR [2, 8] was 205 ± 14 beats/min and the MAP [2, 8] was 89 ± 0.4 mmHg. For the same compound, the “RPP (systolic arterial pressure x HR)” value [2, 8] was 21647 ± 2274, the HR [2, 9] was 187 ± 9 beats/min and the MAP [2, 9] was 81 ± 5c mmHg. For the same compound, the “RPP (systolic arterial pressure x HR)” value [2, 9] was 18555 ± 1336, the HR [2, 10] was 187 ± 9 beats/min and the MAP [2, 10] was 82 ± 5c mmHg. For the same compound, the “RPP (systolic arterial pressure x HR)” value [2, 10] was 17738 ± 860c, the HR [2, 11] was 216 ± 5 beats/min and the MAP [2, 11] was 100 ± 2a mmHg. The “RPP (systolic arterial pressure x HR)” value [2, 11] was 24859 ± 239, the HR [2, 12] was 210 ± 20 beats/min and the MAP [2, 12] was 95 ± 3 mmHg. For the same compound, the “RPP (systolic arterial pressure x HR)” value [2, 12] was 22848 ± 2027, the HR [2, 13] was 190 ± 18 beats/min and the MAP [2, 13] was 104 ± 5 mmHg. The “RPP (systolic arterial pressure x HR)” value [2, 13] was 22089 ± 2288, the HR [2, 14] was 185 ± 14 beats/min and the MAP [2, 14] was 103 ± 8 mmHg. The “RPP (systolic arterial pressure x HR)” value [2, 14] was 20955 ± 1469, the HR [2, 15] was 173 ± 16 beats/min and the MAP [2, 15] was 94 ± 8 mmHg. The “RPP (systolic arterial pressure x HR)” value [2, 15] was 18838 ± 1913, the HR [2, 16] was 171 ± 15 beats/min and the MAP [2, 16] was 94 ± 8 mmHg. For the same compound, the “RPP (systolic arterial pressure x HR)” value [2, 16] was 17692 ± 978, the HR [2, 17] was 187 ± 15 beats/min and the MAP [2, 17] was 109 ± 3 mmHg. For the same compound, the “RPP (systolic arterial pressure x HR)” value [2, 17] was 22626 ± 2173, the HR [2, 18] was 193 ± 7 beats/min and the MAP [2, 18] was 99 ± 3 mmHg. For the same compound, the “RPP (systolic arterial pressure x HR)” value [2, 18] was 21938 ± 989, the HR [2, 19] was 208 ± 11 beats/min and the MAP [2, 19] was 76 ± 7 mmHg. The “RPP (systolic arterial pressure × HR)” value [2, 19] was 17,728 ± 1441, the HR [2, 20] was 247 ± 20 beats/min and the MAP [2, 20] was 77 ± 4^f mmHg. For the same compound, the “RPP (systolic arterial pressure × HR)” value [2, 20] was 21,988 ± 2129, the HR [2, 21] was 204 ± 8 beats/min and the MAP [2, 21] was 81 ± 6^f mmHg. For the same compound, the “RPP (systolic arterial pressure × HR)” value [2, 21] was 18,132 ± 999, the HR [2, 22] was 201 ± 14 beats/min and the MAP [2, 22] was 76 ± 5^f mmHg. The “RPP (systolic arterial pressure × HR)” value [2, 22] was 16748 ± 1425, the HR [2, 23] was 177 ± 11^a beats/min and the MAP [2, 23] was 74 ± 5^f mmHg. The “RPP (systolic arterial pressure × HR)” value [2, 23] was 14909 ± 1289^a, the HR [2, 24] was 158 ± 12^a beats/min and the MAP [2, 24] was 73 ± 5^f mmHg. The “RPP (systolic arterial pressure × HR)” value [2, 24] was 12,967 ± 1115^a, the HR [2, 25] was 189 ± 8^a beats/min and the MAP [2, 25] was 73 ± 9 mmHg. For the same compound, the “RPP (systolic arterial pressure × HR)” value [2, 25] was 15,395 ± 1784, the HR [2, 26] was 229 ± 14 beats/min and the MAP [2, 26] was 76 ± 5^f mmHg. For the same compound, the “RPP (systolic arterial pressure × HR)” value [2, 26] was 19,692 ± 1528, the HR [2, 27] was 215 ± 8 beats/min and the MAP [2, 27] was 71 ± 5^f mmHg. For the same compound, the “RPP (systolic arterial pressure × HR)” value [2, 27] was 17,764 ± 1174, the HR [2, 28] was 179 ± 8^a,b beats/min and the MAP [2, 28] was 74 ± 9^f mmHg. For the same compound, the “RPP (systolic arterial pressure × HR)” value [2, 28] was 15,086 ± 1989, the HR [2, 29] was 170 ± 8^a,b beats/min and the MAP [2, 29] was 73 ± 5^f mmHg. For the same compound, the “RPP (systolic arterial pressure × HR)” value [2, 29] was 13,477 ± 1285^a, the HR [2, 30] was 164 ± 11^a,b beats/min and the MAP [2, 30] was 68 ± 3^f mmHg. For the same compound, the “RPP (systolic arterial pressure × HR)” value [2, 30] was 12,196 ± 1088^a, the “decline in diastolic pressure” value [2, 31] was 47.3% and the “decline in mean arterial pressure” value [2, 31] was 38.8%. The “decline in systolic pressure” value [2, 31] was 24.5%, the “preischemic or postischemic coronary flow” value [3, 32] was “did not alter” and the “ventricular contractile function (stunning)” value [3, 32] was “not associated with compromised ventricular contractile function”. For the same compound, the infarct size ([3]; sildenafil 0.7 mg/kg IP 24 hours before I-R) was 6.9±1.2%, the “iNOS mRNA and protein expression” value [4] was “increase” and the “magnitude of increase, iNOS compared with eNOS” value [4] was “much higher for iNOS”. The “time of peak iNOS mRNA level” value [4] was 2 h and the delayed cardioprotection [5] was “absent”.
